Key:
[1] = Oxidation stability on storage (QH residual rate by HPLC); assay type: physicochemical
Method: The weight ratio of reduced coenzyme Q10 to total coenzyme Q10 (namely, reduced coenzyme Q10/(oxidized coenzyme Q10+reduced coenzyme Q10)) is defined as “QH ratio”. The QH ratio was determined by the following HPLC analysis. For the evaluation of oxidation stability, a rate of the change in the QH ratio at the end of the evaluation from that at the beginning of the evaluation was defined as “QH residual rate”, and the QH residual rate determined from the following expression was used as a measure of oxidation stability.
QH residual rate (%)=100×QH ratio at the end of the evaluation/QH ratio at the beginning of the evaluation
• Column: SYMMETRY C18 (manufactured by Waters); 250 mm (length), 4.6 mm (inner diameter) • Mobile phase: C2H5OH: CH3OH=4:3 (v:v) • Detection wavelength: 210 nm • Flow rate: 1 mL/min

[2] = Water activity measurement (AquaLab Series 4TE); assay type: physicochemical; settings: water activity in packaged body with controlled internal relative humidity
Method: The water activity was measured with AquaLab Series 4TE (METER Group Inc.). A sample having a volume of about 5 ml in a sample dish was placed in AquaLab Series 4TE, and the water activity at 25° C. was measured.

[3] = stored 2 weeks at 40° C., 0.2 g in opened state in packaged body of controlled relative humidity (11% or 48%)

With `COc1c(O)c(C)c(C/C=C(\C)CC/C=C(\C)CC/C=C(\C)CC/C=C(\C)CC/C=C(\C)CC/C=C(\C)CC/C=C(\C)CC/C=C(\C)CC/C=C(\C)CCC=C(C)C)c(O)c1OC` [Comparative Example 2, reduced coenzyme Q10] the “QH residual rate (%)” value ([1]; stored 2 weeks at 40° C. and relative humidity 75%, 0.2 g in sealed container, internal relative humidity 48%) was 37.2%.
With `COc1c(O)c(C)c(C/C=C(\C)CC/C=C(\C)CC/C=C(\C)CC/C=C(\C)CC/C=C(\C)CC/C=C(\C)CC/C=C(\C)CC/C=C(\C)CC/C=C(\C)CCC=C(C)C)c(O)c1OC` [Comparative Example 1, reduced coenzyme Q10] the “QH residual rate (%)” value ([1]; stored 4 weeks at 40° C. and relative humidity 75%, 0.2 g in sealed container, internal relative humidity 48%) was 82.1% and the Water activity [2] was 0.48.
For “co-crystal composed of QH and nicotinamide [Comparative Example 3]”, the “QH residual rate (%)” value [1, 3] was 82.6% and the Water activity [2] was 0.48.
With “co-crystal composed of QH and nicotinamide [Example 5]” the “QH residual rate (%)” value [1, 3] was 94.7% and the Water activity [2] was 0.11.

Reference: US20250059124A1, “METHOD FOR STORING REDUCED COENZYME Q10” (KANEKA CORPORATION, priority 2021, published 2025)
